Patent publication US8809343B2, “Pyrimidine derivative, preparation method and use thereof” (Fudan University, priority 2008, dated 2014)
Like-named read-outs stand apart in the source and are kept apart here.

Tests used:
[1] = Cell toxicity in uninfected MT-4 cells (MTT method); type: cell-based; conditions: human, uninfected MT-4 cells
Description: (§1) Anti-virus activity of cells in vitro was determined by Rega Institute for Medical of […] Katholleke University, consisting mainly: inhibitory activity towards HIV-infected MT-4 cells and cell toxicity. The method is described below: exert the compound on the HIV-infected ME-4 cells, and determine the protection of the drug on the cell lesions induced by HIV at varied HIV-infection intervals, calculate the half effective concentration IC50, the required concentration that protect 50% of cells from cell lesions induced by HIV. Toxicity determination is carried out in parallel with anti-HIV activity experiments, also in the cultured MT-4 cells, determine the CC50, the concentration that leads 50% of uninfected cells to cell lesions, and calculate the selectivity index SI=CC50/IC50 with the MTT method.
(§2) The detailed operation is as follows: the compound is dissolved with DMSO or water and diluted with phosphate buffer saline, 3×10^5 MT-4 cells are cultured with 100 μL various concentrations of compounds for 1 h, then 100 μL suitable virus dilution is added to the compound, and the cells are cultured at 37° C. for 1 h. After being washed for 3 times, the cells are suspended again in the culture media containing or not compounds individually. Subsequently, the cells are transferred to the atmosphere containing 5% CO2 and cultured for 7 days at 37° C., and culture media containing or not compounds are used to replace or supplement the culture solution on the third day after infection. Kinds of culture conditions should be duplicated. The cell lesions caused by virus are monitored with reverse light microscopy everyday. Typically, the virus dilution applied in the present experiments generally cause cell lesion on the fifth day after infection. […] It should be emphasized that, when the compound is poorly water-soluble and can only be dissolved in DMSO, the ratio of DMSO to water is generally below 10% (the final concentration of DMSO in MT-4 cell culture media is smaller than 2%). Because DMSO can influence the anti-virus activity of the tested compounds, blank tests on the solution containing the same concentration of DMSO should be conducted in parallel. Additionally, the final concentration of DMSO is far below the concentration required to influence the replication of HIV-1 in T cells.

[2] = test system: drug-resistant viral strain of L103N+Y181C; experiment: Anti-HIV activity in MT-4 cells, drug-resistant viral strain; type: cell-based, HIV-1
Description: as §1
(§3) Anti-HIV activity of various compounds is monitored by the inhibitory efficiency of drugs on the cell lesions induced by HIV. Carry out cell culture with MT-4 cells. The adopted virus strains are HIV-1 IIIB strain and drug-resistant viral strain of […].
as §2

[3] = test system: HIV-1 IIIB strain; experiment: Anti-HIV activity: protection of HIV-infected MT-4 cells from virus-induced cell lesions; type: cell-based; conditions: for SI (Selectivity index, the ratio of CC50/IC50): HIV-1 IIIB
Description: as §1, §3, §2

[4] = test system: MT-4 cells; experiment: Cell toxicity in uninfected MT-4 cells (MTT method); type: cell-based; conditions: Table 1
Description: as §1, §2

[5] = Human immunodeficiency virus 1, MT4, read-out: EC50 103N + 181C, MT-4 cells, Table 1
[6] = Human immunodeficiency virus 1, IIIB, MT4, read-out: EC50 HIV-1(IIIB)
[7] = MT-4 cells, Table 1, read-out: EC50 HIV-1(IIIB)
[8] = MT-4 cells, Table 1, read-out: EC50 103N + 181C

Compound | EC50 [3, 6] | CC50 [4] | EC50 [3, 7] | EC50 [2, 8] | also measured
N#Cc1ccc(Nc2nccc(Oc3cccc4cccnc34)n2)cc1 [Compound 1] | 2.9 nM |  |  |  | CC50 at 7 days ([1]; Table 1): 38.8 µM; EC50 [2, 5]: ≥ 38.8 µM; SI (Selectivity index, the ratio of CC50/IC50) ([3]; MT-4 cells, Table 1): 13393
N#Cc1ccc(Nc2nc(Cl)cc(Oc3cccc4cccnc34)n2)cc1 [Compound 2] | 19.5 nM |  |  |  | CC50 at 7 days ([1]; Table 1): 20.1 µM; EC50 [2, 5]: ≥ 20.1 µM; SI (Selectivity index, the ratio of CC50/IC50) ([3]; MT-4 cells, Table 1): 1031
Cc1cnc(Nc2ccc(C#N)cc2)nc1Oc1cccc2cccnc12 [Compound 5] |  | 19.9 µM | 5.8 nM |  | 
Cc1c(Cl)nc(Nc2ccc(C#N)cc2)nc1Oc1cccc2cccnc12 [Compound 6] |  | 44.7 µM | 25.7 nM |  | 
CNc1nc(Nc2ccc(C#N)cc2)nc(Oc2cccc3cccnc23)c1C [Compound 7] |  | 36.5 µM | 15.8 nM |  | 
COc1nc(Nc2ccc(C#N)cc2)nc(Oc2cccc3cccnc23)c1C [Compound 8] |  | 31.8 µM | 17.8 nM |  | 
CC(C)c1c(Cl)nc(Nc2ccc(C#N)cc2)nc1Oc1ccc2cc(C#N)ccc2c1 [Compound 9] |  | 436 µM | 50 nM | 3.36 µM | 
Cc1c(Oc2ccnc(Nc3ccc(C#N)cc3)n2)ccc2ccccc12 [Compound 10] |  | 114 µM | 3.46 nM | 11 µM | 
Cc1cc2ccccc2cc1Oc1ccnc(Nc2ccc(C#N)cc2)n1 [Compound 11] |  | 71.2 µM | 2.3 nM | > 70.9 µM | 
Cc1cc2ccccc2c(C)c1Oc1ccnc(Nc2ccc(C#N)cc2)n1 [Compound 12] |  | 313 µM | 4.1 nM | 1.17 µM | 
N#Cc1ccc(Nc2nccc(Oc3ccc4cc(Br)ccc4c3Br)n2)cc1 [Compound 13] |  | 51.1 µM | 4.6 nM | > 50.4 µM | 
N#Cc1ccc(Nc2nccc(Oc3ccc4cc(C#N)ccc4c3)n2)cc1 [Compound 14] |  | 67.8 µM | 3.3 nM | 6.3 µM | 
N#Cc1ccc(Nc2nccc(Oc3ccc4cc(C#N)ccc4c3Br)n2)cc1 [Compound 15] |  | 290 µM | 1.6 nM | 0.24 µM | 
N#Cc1ccc(Nc2nccc(Oc3cc4ccc(C#N)cc4cc3Br)n2)cc1 [Compound 16] |  | 55.4 µM | 1.1 nM | > 56.5 µM | 
CNc1nc(Nc2ccc(C#N)cc2)nc(Oc2ccc3ccccc3c2Br)c1C [Compound 17] |  | 177 µM | 15.4 nM | 6.15 µM | 
CCc1c(NC)nc(Nc2ccc(C#N)cc2)nc1Oc1ccc2cc(C#N)ccc2c1Br [Compound 18] |  | 304 µM | 6.2 nM | > 59.5 µM | 
CNc1nc(Nc2ccc(C#N)cc2)nc(Oc2ccc3cc(C#N)ccc3c2)c1C(C)C [Compound 19] |  | 265 µM | 7.6 nM | 4.58 µM | 
Cc1ccccc1Oc1nc(Nc2ccc(C#N)cc2)nc2ccccc12 [Compound 25] | 93.7 nM |  |  |  | CC50 at 7 days ([1]; Table 3): 108 µM; SI (Selectivity index, the ratio of CC50/IC50) ([3]; MT-4 cells, Table 3): 1148
N#Cc1ccc(Nc2nc(Oc3ccc(Br)cc3)c3ccccc3n2)cc1 [Compound 26] | 263 nM |  |  |  | CC50 at 7 days ([1]; Table 3): 235 µM; SI (Selectivity index, the ratio of CC50/IC50) ([3]; MT-4 cells, Table 3): 894
Cc1cccc(Oc2nc(Nc3ccc(C#N)cc3)nc3ccccc23)c1 [Compound 27] | 625 nM |  |  |  | CC50 at 7 days ([1]; Table 3): > 352 µM; SI (Selectivity index, the ratio of CC50/IC50) ([3]; MT-4 cells, Table 3): >563
COc1ccc(Oc2nc(Nc3ccc(C#N)cc3)nc3ccccc23)cc1 [Compound 28] | 187 nM |  |  |  | CC50 at 7 days ([1]; Table 3): > 3400 µM; SI (Selectivity index, the ratio of CC50/IC50) ([3]; MT-4 cells, Table 3): >1810
COc1ccccc1Oc1nc(Nc2ccc(C#N)cc2)nc2ccccc12 [Compound 29] | 30 nM |  |  |  | CC50 at 7 days ([1]; Table 3): > 186 µM; SI (Selectivity index, the ratio of CC50/IC50) ([3]; MT-4 cells, Table 3): >6186
N#Cc1ccc(Nc2nc(Oc3ccccc3)c3ccccc3n2)cc1 [Compound 30] | 887 nM |  |  |  | CC50 at 7 days ([1]; Table 3): > 365 µM; SI (Selectivity index, the ratio of CC50/IC50) ([3]; MT-4 cells, Table 3): >411
Cc1ccc(Oc2nc(Nc3ccc(C#N)cc3)nc3ccccc23)cc1 [Compound 31] | 42 nM |  |  |  | CC50 at 7 days ([1]; Table 3): 340 µM; SI (Selectivity index, the ratio of CC50/IC50) ([3]; MT-4 cells, Table 3): 8091
